Reference: patent publication US8088805B2, “Inhibitors of histone deacetylase” (MethylGene Inc., priority 2004, dated 2012)

How the values were obtained:
HCT116 cells = assay: MTT assay; assay type: cell-based; conditions: Homo sapiens, HCT-116, 72 hours
Procedure: HCT116 cells (2000/well) were plated into 96-well tissue culture plates one day before compound treatment. Compounds at various concentrations were added to the cells. The cells were incubated for 72 hours at 37° C. in 5% CO2 incubator. MTT (3-[4,5-dimethylthiazol-2-yl]-2,5diphenyl tetrazolium bromide, Sigma) was added at a final concentration of 0.5 mg/ml and incubated with the cells for 4 hours before one volume of solubilization buffer (50% N,N-dimethylformamide, 20% SDS, pH 4.7) was added onto the cultured cells. After overnight incubation, solubilized dye was quantified by colorimetric reading at 570 nM using a reference at 630 nM using an MR700 plate reader (Dynatech Laboratories Inc.). OD values were converted to cell numbers according to a standard growth curve of the relevant cell line. The concentration which reduces cell numbers to 50% of that of solvent treated cells is determined as MTT IC50. In Table 14, “a” indicates activity of ≦0.1 μM, “b” indicates activity of ≦1 μM, and “c” indicates activity of ≦5 μM.

[1] = tested on: Histone H4 acetylation in T24 human bladder cancer cells; assay: Histone H4 acetylation in whole cells by immunoblots; assay type: cell-based; conditions: ratio of EC50 of compound to EC50 of control MS-275, 16 h
Procedure: T24 human bladder cancer cells growing in culture were incubated with HDAC inhibitors for 16 h. Histones were extracted from the cells after the culture period as described by M. Yoshida et al. (J. Biol. Chem. 265(28): 17174-17179 (1990)). […] of total histone protein was loaded onto SDS/PAGE and transferred to nitrocellulose membranes. Membranes were probed with polyclonal antibodies specific for acetylated histone H-4 (Upstate Biotech Inc.), followed by horse radish peroxidase conjugated secondary antibodies (Sigma). Enhanced Chemiluminescence (ECL) (Amersham) detection was performed using Kodak films (Eastman Kodak). Acetylated H-4 signal was quantified by densitometry. Data are presented as the ratio of the concentration effective for […] the acetylated H-4 signal by 50% (EC50) using the indicated compound of the invention to a control compound, MS-275. If the indicated ratio is 1, then the compound of the invention is as effective as the MS-275 control compound. […] Further information regarding the MS-275 compound can be found in Suzuki et al., J. Med. Chem. 1999, pp. 3001-3003.

[2] = target: T1, cloned recombinant human HDAC-1 enzyme (Homo sapiens, UniProt Q13547); assay: HDAC-1 enzymatic inhibition, Assay 1 ([3H]-acetylated histone substrate); assay type: biochemical; conditions: Assay 1: [3H]-labeled acetylated histone substrate, recombinant hHDAC-1
T1 construct: made in house; host or cells: Baculovirus insect cell expression system
Procedure: Assay 1. HDAC inhibitors were screened against a cloned recombinant human HDAC-1 enzyme expressed and purified from a Baculovirus insect cell expression system. For deacetylase assays, 20,000 cpm of the [^3H]-metabolically labeled acetylated histone substrate (M. Yoshida et al., J. Biol. Chem. 265(28): 17174-17179 (1990)) was incubated with 30 μg of the cloned recombinant hHDAC-1 for 10 minutes at 37° C. The reaction was stopped by adding acetic acid (0.04 M, final concentration) and HCl (250 mM, final concentration). The mixture was extracted with ethyl acetate and the released [^3H]-acetic acid was quantified by scintillation counting. For inhibition studies, the enzyme was preincubated with compounds at 4° C. for 30 minutes prior to initiation of the enzymatic assay. IC50 values for HDAC enzyme inhibitors were determined by performing dose response curves with individual compounds and determining the concentration of inhibitor producing fifty percent of the maximal inhibition.
(§1) Assay 1 was used to measure HDAC activity of compounds 10c, 13e, 16d, 26b, 44, 47, 61a, 61b, 63, 134, 138, and 308. Assay 2 was used to measure HDAC activity of compounds 361, 366, 367, 368, 369, 370, 371, 372, 373, 374, 375, 376, 377, and 378. In Table 14, “a” indicates activity of ≦0.1 μM, “b” indicates activity of ≦1 μM, “c” indicates activity of ≦5 μM, and “d” indicates activity of >5 μm. For the H4-Ac T24 EC vs. MS-275 assay in Table 14, “u” indicates less than 1, “v” indicates 1, and “w” indicates greater than 1. For the H3 Ac t24 assay in Table 14, “x” indicates activity of ≦1 μM, “y” indicates activity of ≦10 μM, and “z” indicates activity of ≦20 μM.

Human HDAC-1 = Human HDAC-1 (Homo sapiens, UniProt Q13547); assay: HDAC-1 enzymatic inhibition, Assay 2 (Boc-Lys(Ac)-AMC, Fluor-de-Lys); assay type: biochemical; conditions: Assay 2: Boc-Lys(Ac)-AMC substrate, fluorescence; read-out: HDAC1 IC50
Procedure: Assay 2. The following protocol was also used to assay the compounds of the invention. In the assay, the buffer used was 25 mM HEPES, pH 8.0, 137 mM NaCl, 2.7 mM KCl, 1 mM MgCl2 and the substrate was Boc-Lys(Ac)-AMC in a 50 mM stock solution in DMSO. The enzyme stock solution was 4.08 μg/mL in buffer. The compounds were pre-incubated (2 μl in DMSO diluted to 13 μl in buffer for transfer to assay plate) with enzyme (20 μl of 4.08 μg/ml) for 10 minutes at room temperature (35 μl pre-incubation volume). The mixture was pre-incubated for 5 minutes at room temperature. The reaction was started by bringing the temperature to 37° C. and adding […] substrate. Total reaction volume was 50 μl. The reaction was stopped after 20 minutes by addition of 50 μl developer, prepared as directed by Biomol (Fluor-de-Lys developer, Cat. # KI-105). A plate was incubated in the dark for 10 minutes at room temperature before reading (λEx=360 nm, λEm=470 nm, Cutoff filter at 435 nm).
as §1

SW48 colon cancer cells = assay: Human tumor xenograft in vivo, SW48; conditions: Mus musculus, 30 mg/kg ip, mice, read-out: % Inhibition (relative to vehicle control) SW48
Procedure: (§2) Eight to ten week old female BCD1 mice (Taconic Labs, Great Barrington, N.Y.) were injected subcutaneously in the flank area with 2×10^6 preconditioned HCT116 human colorectal carcinoma cells, SW48 colon cancer cells, and A549 lung cancer cells. Preconditioning of these cells was done by a minimum of three consecutive tumor transplantations in the same strain of nude mice. Subsequently, tumor fragments of approximately 30 mgs were excised and implanted subcutaneously in mice, in the left flank area, under Forene anesthesia (Abbott Labs, Geneva, Switzerland). When the tumors reached a mean volume of 100 mm^3, the mice were treated intraperitoneally by daily injection, with a solution of the histone deacetylase inhibitor in DMSO, at a starting dose of 10 mg/kg. The optimal dose of the HDAC inhibitor was established by dose response experiments according to standard protocols. Tumor volume was calculated every second day post infusion according to standard methods (e.g., Meyer et al., Int. J. Cancer 43: 851-856 (1989)).

[3] = tested on: HCT116 human colorectal carcinoma cells; assay: Human tumor xenograft in vivo, HCT116; conditions: Mus musculus, HCT-116; 30 mg/kg ip, mice; read-out: % Inhibition (relative to vehicle control) HCT116
Procedure: as §2

T1 sequence (Q13547 whole entry): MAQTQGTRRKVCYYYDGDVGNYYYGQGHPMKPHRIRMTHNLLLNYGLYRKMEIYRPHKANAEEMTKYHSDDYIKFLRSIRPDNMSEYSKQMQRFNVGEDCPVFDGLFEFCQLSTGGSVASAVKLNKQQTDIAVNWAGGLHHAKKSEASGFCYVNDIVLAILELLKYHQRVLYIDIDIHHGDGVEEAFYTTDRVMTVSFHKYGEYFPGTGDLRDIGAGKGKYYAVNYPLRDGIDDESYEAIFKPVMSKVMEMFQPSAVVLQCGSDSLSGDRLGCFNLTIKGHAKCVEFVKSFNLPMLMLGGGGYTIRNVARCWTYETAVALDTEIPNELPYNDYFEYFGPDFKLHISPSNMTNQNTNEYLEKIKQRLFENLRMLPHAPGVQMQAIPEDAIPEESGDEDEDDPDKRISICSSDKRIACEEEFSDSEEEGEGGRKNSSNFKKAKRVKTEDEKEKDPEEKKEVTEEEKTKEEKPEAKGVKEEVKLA
Chain of Human HDAC-1 (Q13547 whole entry): as above

Compound | IC50 (HCT116 cells) [µM] | H4-Ac T24 EC vs. MS-275 [1] | IC50 [2] [µM] | IC50 (Human HDAC-1) [µM] | inhibition in vivo at 30 mg/kg (SW48 colon cancer cells) [%] | inhibition in vivo at 30 mg/kg [3] [%]
Nc1ccccc1NC(=O)c1ccc(CNc2nccc(-c3ccc(F)c(F)c3)n2)cc1 [16d, N-(2-Amino-phenyl)-4-{[4-(3,4-difluoro-phenyl)-pyrimidin-2-ylamino]-methyl}-benzamide] | 0.1 to 1 | v (“v” indicates 1) | 0.1 to 1 |  |  | 
Nc1ccccc1NC(=O)c1ccc(CNc2ccnc(-c3cccnc3)n2)cc1 [compound 47, N-(2-Amino-phenyl)-4-[(2-pyridin-3-yl-pyrimidin-4-ylamino)-methyl]-benzamide] | 0.1 to 1 | u (“u” indicates less than 1) | 1 to 5 |  |  | 
Nc1ccccc1NC(=O)c1ccc(CNc2nc3ccc(O)cc3s2)cc1 [compound 134, N-(2-Amino-phenyl)-4-[(6-hydroxy-benzothiazol-2-ylamino)-methyl]-benzamide] | 0.1 to 1 | u (“u” indicates less than 1) | 1 to 5 |  |  | 
COC(=O)c1ccc(O[C@H]2CCN(c3ccc(C(=O)Nc4ccccc4N)cc3)C2)cc1 [compound 372, (S)-Methyl-4-(1-(4-(2-aminophenylcarbamoyl)phenyl)pyrrolidin-3-yloxy)benzoate] | 0.1 to 1 |  |  | ≤ 0.1 |  | 
Cn1cnc2cc(NCc3ccc(C(=O)Nc4ccccc4N)cc3)ccc21 [compound 252, N-(2-Amino-phenyl)-4-[(1-methyl-1H-benzoimidazol-5-ylamino)-methyl]-benzamide] |  |  |  |  | 25.9 | 70.6
Nc1ccccc1NC(=O)c1ccc(N2CC[C@H](Oc3ccc(Oc4ccccc4)cc3)C2)cc1 [compound 376, (S)—N-(2-Aminophenyl)-4-(3-(4-phenoxyphenoxy)pyrrolidin-1-yl)benzamide] | 1 to 5 |  |  | 1 to 5 |  | 
Nc1ccccc1NC(=O)c1ccc(N2CC[C@@H](Nc3ccccc3)C2)cc1 [compound 370, (R)—N-(2-Aminophenyl)-4-(3-(phenylamino)pyrrolidin-1-yl)benzamide] | 1 to 5 |  |  | 1 to 5 |  | 
COc1cccc(CCNc2ccnc(NCc3ccc(C(=O)Nc4ccccc4N)cc3)n2)c1 [10c, N-(2-Amino-phenyl)-4-({4-[2-(3-methoxy-phenyl)-ethylamino]-pyrimidin-2-ylamino}-methyl)-benzamide] | 0.1 to 1 | v (“v” indicates 1) | 1 to 5 |  |  | 
CSc1nc(NCc2ccc(C(=O)Nc3ccccc3N)cc2)cc(-c2cccnc2)n1 [61a, N-(2-Amino-phenyl)-4-[(2-methylsulfanyl-6-pyridin-3-yl-pyrimidin-4-ylamino)-methyl]-benzamide] | ≤ 0.1 | v (“v” indicates 1) | 1 to 5 |  |  | 
Nc1ccccc1NC(=O)c1ccc(CNc2ncc(-c3cccnc3)cn2)cc1 [13e, N-(2-Amino-phenyl)-4-[(5-pyridin-3-yl-pyrimidin-2-ylamino)-methyl]-benzamide] | 0.1 to 1 | v (“v” indicates 1) | 1 to 5 |  |  | 
Nc1ccccc1NC(=O)c1ccc(CNc2nccc(-c3ccc(CN4CCOCC4)cc3)n2)cc1 [compound 44, N-(2-Amino-phenyl)-4-{[4-(4-morpholin-4-ylmethyl-phenyl)-pyrimidin-2-ylamino]-methyl}-benzamide] | ≤ 0.1 | v (“v” indicates 1) | 1 to 5 |  |  | 
Nc1ccccc1NC(=O)c1ccc(N2CC[C@@H](Oc3cccnc3)C2)cc1 [compound 368, (R)—N-(2-Aminophenyl)-4-(3-(pyridin-3-yloxy)pyrrolidin-1-yl)benzamide] | 0.1 to 1 |  |  | 0.1 to 1 |  | 
Nc1ccccc1NC(=O)c1ccc(N2CC[C@H](Oc3ccc(C(=O)O)cc3)C2)cc1 [compound 373, (S)-4-(1-(4-(2-Aminophenylcarbamoyl)phenyl)pyrrolidin-3-yloxy)benzoic acid] | > 5 |  |  | 0.1 to 1 |  | 
COc1cc(NCc2ccc3oc(C(=O)Nc4ccccc4N)cc3c2)cc(OC)c1OC [compound 308, 5-[(3,4,5-Trimethoxy-phenylamino)-methyl]-benzofuran-2-carboxylic acid (2-amino-phenyl)-amide] | 0.1 to 1 | w (“w” indicates greater than 1) | 1 to 5 |  |  | 
Nc1ccccc1NC(=O)c1ccc(CNc2cncc(-c3cccnc3)n2)cc1 [compound 63, N-(2-Amino-phenyl)-4-[(6-pyridin-3-yl-pyrazin-2-ylamino)-methyl]-benzamide] | 0.1 to 1 | v (“v” indicates 1) | 1 to 5 |  |  | 
Nc1ccccc1NC(=O)c1ccc(N2CC[C@H](Oc3ccc([N+](=O)[O-])cc3)C2)cc1 [compound 377, (S)—N-(2-Aminophenyl)-4-(3-(4-nitrophenoxy)pyrrolidin-1-yl)benzamide] | 0.1 to 1 |  |  | 0.1 to 1 |  | 
Nc1ccccc1NC(=O)c1ccc(N2CC[C@H](Oc3ccccc3)C2)cc1 [compound 371, (S)—N-(2-Aminophenyl)-4-(3-phenoxypyrrolidin-1-yl)benzamide] | 0.1 to 1 |  |  | 0.1 to 1 |  | 
Nc1ccccc1NC(=O)c1ccc(CNc2cc(-c3cccnc3)ncn2)cc1 [61b, N-(2-Amino-phenyl)-4-[(6-pyridin-3-yl-pyrimidin-4-ylamino)-methyl]-benzamide] | ≤ 0.1 | u (“u” indicates less than 1) | 1 to 5 |  |  | 
